The values that follow come from patent US9938258B2 (Karyopharm Therapeutics Inc., priority 2012, dated 2018).

Like-named read-outs stand apart in the source and are kept apart here.

One assay deals with 3T3 cells. The assay is described as follows: MTT cell proliferation assay, 3T3. The assay is classed as cell-based, mouse. To be noted: Mus musculus. As to the method: (§1) The MTT cell proliferation assay was used to study the cytotoxic properties of the compounds. The assay was performed according to the method described by Roche Molecular Biochemicals, with minor modifications. The assay is based on the cleavage of the tetrazolium salt, MTT, in the presence of an electron-coupling reagent. The water-insoluble formazan salt produced must be solubilized in an additional step. Cells grown in a 96-well tissue culture plate were incubated with the MTT solution for approximately 4 hours. After this incubation period, a water-insoluble formazan dye formed. After solubilization, the formazan dye was quantitated using a scanning multi-well spectrophotometer (ELISA reader). […] The cells were seeded at 5,000-10,000 cells in each well of 96-well plate in 100 μL of fresh culture medium and were allowed to attach overnight. The stock solutions of the compounds were diluted in 100 μL cell culture medium to obtain eight concentrations of each test compound, ranging from 1 nM to 30 μM. […] All optical densities were measured at 490 nm using a Vmax Kinetic Microplate Reader (Molecular Devices). In most cases, the assay was performed in duplicate and the results were presented as a mean percent inhibition to the negative control±SE. The following formula was used to calculate the percent of inhibition: Inhibition (%)=(1-(ODo/OD)) ×100.
(§2) The compounds were tested against MS751, Z138 and 3T3 cells. The MS751 cell line is derived from a metastasis to lymph node of human cervix from a patient diagnosed with squameous cell carcinoma of the cervix. The Z138 cell line is a mature B-cell acute lymphoblastic leukemia cell line derived from a patient with chronic lumphocytic leukemia. 3T3 cells are standard fibroblast cells; they were originally isolated from Swiss mouse embryo tissue.
In general terms: Tetrazolium assays rely on reduction of a dye to a coloured formazan, in cell work by metabolically active cells.

Another assay deals with Z138 cells. In words: MTT cell proliferation assay, Z138. To be noted: Homo sapiens. The class given is cell-based. As to the method:
as §1, §2

The next assay has as its system MS751 cells. The assay is described as follows: MTT cell proliferation assay, MS751. The assay is classed as cell-based, human. To be noted: Homo sapiens. The method, then: as §1, §2
[1] abbreviates: NIH3T3, 3T3 cells, eight concentrations 1 nM to 30 μM, incubation approximately 64-72 hours, read-out: MTT Assay IC50, 3T3.
Setting [2] is: Z-138, Z138 cells, eight concentrations 1 nM to 30 μM, incubation approximately 64-72 hours, read-out: MTT Assay IC50, Z138.
Setting [3] is: MS751, MS751 cells, eight concentrations 1 nM to 30 μM, incubation approximately 64-72 hours, read-out: MTT Assay IC50, MS751.
The mark [4] stands for this setting: NIH3T3, 3T3 cells, approximately 64-72 hours incubation, read-out: MTT Assay IC50, 3T3.
[5] abbreviates: Z-138, Z138 cells, approximately 64-72 hours incubation, read-out: MTT Assay IC50, Z138.
The mark [6] stands for this setting: MS751, MS751 cells, approximately 64-72 hours incubation, read-out: MTT Assay IC50, MS751.

One may read the IC50 as the midpoint of a concentration-inhibition curve. With `O=C(/C=C/c1cccnc1)NCC1Cc2cc(-c3ccccc3F)cc(Cl)c2O1` (stereo not drawn) [Compound 18, (E)-N-((7-chloro-5-(2-fluorophenyl)-2,3-dihydrobenzofuran-2-yl)methyl)-3-(pyridin-3-yl)acrylamide], the results for the IC50 in the assay with 3T3 cells (setting [1]), in the assay with Z138 cells (setting [2]) and in the assay on MS751 cells (setting [3]) were 5 to 30 µM, 0.1 to 5 µM and 0.1 to 5 µM, respectively.

For the molecule `CCOC(=O)c1ccc(-c2cc(Cl)c3c(c2)CC(CNC(=O)/C=C/c2cccnc2)O3)cc1` (stereo not drawn) [Compound 128, (E)-ethyl 4-(7-chloro-2-((3-(pyridin-3-yl)acrylamido)methyl)-2,3-dihydrobenzofuran-5-yl)benzoate], the IC50 in the assay on 3T3 cells (setting [1]) was 0.1 to 5 µM; in the assay with Z138 cells (setting [2]), below 0.1 µM; in the assay with MS751 cells (setting [3]) it was 0.1 to 5 µM.

For the molecule `CC1(CNC(=O)/C=C/c2ccc(N)nc2)Cc2cc(-c3ccc(C(=O)N4CCOCC4)cc3)cc(Cl)c2O1` (stereo not drawn) [Compound 349, (E)-3-(6-aminopyridin-3-yl)-N-((7-chloro-2-methyl-5-(4-(morpholine-4-carbonyl)phenyl)-2,3-dihydrobenzofuran-2-yl)methyl)acrylamide], the IC50 with 3T3 cells (setting [4]) is below 0.1 µM; in the assay on Z138 cells (setting [5]) it was 0.1 to 5 µM; in the assay on MS751 cells (setting [6]), 0.1 to 5 µM.

With `CC(=O)c1ccc(-c2cc(Cl)c3c(c2)CC(CNC(=O)CCc2cnc(N)c(Br)c2)O3)s1` (stereo not drawn) [Compound 371, N-((5-(5-acetylthiophen-2-yl)-7-chloro-2,3-dihydrobenzofuran-2-yl)methyl)-3-(6-amino-5-bromopyridin-3-yl)propanamide], the results for the IC50 in the assay with 3T3 cells (setting [4]), in the assay on Z138 cells (setting [5]) and in the assay with MS751 cells (setting [6]) were above 30 µM, 5 to 30 µM and 5 to 30 µM, respectively.

With `CC(=O)c1ccc(-c2cc(Cl)c3c(c2)CC(CNC(=O)/C=C/c2cc(C)n(-c4cc(C)on4)c2C)O3)s1` (stereo not drawn) [Compound 288, (E)-N-((5-(5-acetylthiophen-2-yl)-7-chloro-2,3-dihydrobenzofuran-2-yl)methyl)-3-(2,5-dimethyl-1-(5-methylisoxazol-3-yl)-1H-pyrrol-3-yl)acrylamide], the IC50 with 3T3 cells (setting [4]), in the assay on Z138 cells (setting [5]) and with MS751 cells (setting [6]) was above 30 µM each time.

With `O=C(/C=C/c1cccnc1)NCC1Cc2cc(-c3cccc(C(=O)O)c3)cc(Cl)c2O1` (stereo not drawn) [Compound 76, (E)-3-(7-chloro-2-((3-(pyridin-3-yl)acrylamido)methyl)-2,3-dihydrobenzofuran-5-yl)benzoic acid], the IC50 in the assay with 3T3 cells (setting [1]), in the assay with Z138 cells (setting [2]) and with MS751 cells (setting [3]) was 5 to 30 µM throughout.

For the molecule `O=C(/C=C/c1cccnc1)NCC1Cc2cc(-c3cccc(F)c3F)cc(Cl)c2O1` (stereo not drawn) [Compound 73, (E)-N-((7-chloro-5-(2,3-difluorophenyl)-2,3-dihydrobenzofuran-2-yl)methyl)-3-(pyridin-3-yl)acrylamide], the IC50 in the assay with 3T3 cells (setting [1]) lay in the range of 5 to 30 µM; with Z138 cells (setting [2]), 0.1 to 5 µM; with MS751 cells (setting [3]), 0.1 to 5 µM.

On to `Nc1ccc(/C=C/C(=O)NCC2Oc3c(Cl)cc(-c4ccc(C(=O)N5CCOCC5)cc4)cc3C2=O)cn1` (stereo not drawn) [Compound 348, (E)-3-(6-aminopyridin-3-yl)-N-((7-chloro-5-(4-(morpholine-4-carbonyl)phenyl)-3-oxo-2,3-dihydrobenzofuran-2-yl)methyl)acrylamide], for which the IC50 was in the range of 0.1 to 5 µM in the assay on 3T3 cells (NIH3T3, read-out: MTT Assay IC50, 3T3); 5 to 30 µM with Z138 cells (Z-138, read-out: MTT Assay IC50, Z138); 0.1 to 5 µM in the assay with MS751 cells (MS751, read-out: MTT Assay IC50, MS751).

In the case of `Nc1ccc(CCC(=O)NCC2Cc3cc(-c4ccc(C(=O)N5CCNCC5)cc4)cc(Cl)c3O2)cn1` (stereo not drawn) [Compound 920, 3-(6-aminopyridin-3-yl)-N-((7-chloro-5-(4-(piperazine-1-carbonyl)phenyl)-2,3-dihydrobenzofuran-2-yl)methyl)propanamide], the IC50 in the assay with 3T3 cells (setting [4]), with Z138 cells (setting [5]) and in the assay on MS751 cells (setting [6]) was above 30 µM in each case.

As for `CC(=O)c1ccc(-c2cc(C)c3c(c2)CC(CNC(=O)/C=C/c2cccnc2)O3)s1` (stereo not drawn) [Compound 138, (E)-N-((5-(5-acetylthiophen-2-yl)-7-methyl-2,3-dihydrobenzofuran-2-yl)methyl)-3-(pyridin-3-yl)acrylamide], the IC50 was 0.1 to 5 µM with 3T3 cells (setting [1]), below 0.1 µM with Z138 cells (setting [2]) and below 0.1 µM in the assay on MS751 cells (setting [3]).

For `CC(=O)c1ccc(-c2cc(Cl)c3c(c2)CC(CNC(=O)/C=C/c2ccc(-c4ccc(F)cc4)s2)O3)s1` (stereo not drawn) [Compound 297, (E)-N-((5-(5-acetylthiophen-2-yl)-7-chloro-2,3-dihydrobenzofuran-2-yl)methyl)-3-(5-(4-fluorophenyl)thiophen-2-yl)acrylamide], the IC50 in the assay on 3T3 cells (setting [4]), in the assay with Z138 cells (setting [5]) and in the assay on MS751 cells (setting [6]) was above 30 µM in each case.

Turning to `CN(C)C(=O)c1ccc(-c2cc(Cl)c3c(c2)CC(CNC(=O)/C=C/c2ccc(N)nc2)O3)cc1` (stereo not drawn) [Compound 233, (E)-4-(2-((3-(6-aminopyridin-3-yl)acrylamido)methyl)-7-chloro-2,3-dihydrobenzofuran-5-yl)-N,N-dimethylbenzamide], the values for the IC50 with 3T3 cells (setting [4]), in the assay with Z138 cells (setting [5]) and in the assay with MS751 cells (setting [6]) were 5 to 30 µM, below 0.1 µM and 0.1 to 5 µM, respectively.

On to `Nc1ccc(/C=C/C(=O)NCC2Cc3cc(-c4ccc(C(=O)N5CCOCC5)nc4)cc(Cl)c3O2)cn1` (stereo not drawn) [Compound 248, (E)-3-(6-aminopyridin-3-yl)-N-((7-chloro-5-(6-(morpholine-4-carbonyl)pyridin-3-yl)-2,3-dihydrobenzofuran-2-yl)methyl)acrylamide], for which the 50% inhibitory concentration (IC50) is above 30 µM with 3T3 cells (setting [4]), below 0.1 µM in the assay with Z138 cells (setting [5]) and 0.1 to 5 µM in the assay on MS751 cells (setting [6]).

Turning to `CCOC(=O)CCOCCOCCC(=O)N1CCN(C(=O)c2ccc(-c3cc(Cl)c4c(c3)CC(CNC(=O)/C=C/c3ccc(N)nc3)O4)cc2)CC1` (stereo not drawn) [Compound 354, (E)-ethyl 3-(2-(3-(4-(4-(2-((3-(6-aminopyridin-3-yl)acrylamido)methyl)-7-chloro-2,3-dihydrobenzofuran-5-yl)benzoyl)piperazin-1-yl)-3-oxopropoxy)ethoxy)propanoate], the IC50 in the assay with 3T3 cells (setting [4]) is below 0.1 µM; in the assay with Z138 cells (setting [5]) it was 5 to 30 µM; in the assay with MS751 cells (setting [6]) it was below 0.1 µM.

With `Nc1ccc(/C=C/C(=O)NCC2Cc3cc(-c4ccc(C(=O)N5CC(F)(F)C5)c(F)c4F)cc(Cl)c3O2)cn1` (stereo not drawn) [Compound 337], the figures for the IC50 in the assay on 3T3 cells (setting [4]), in the assay on Z138 cells (setting [5]) and in the assay on MS751 cells (setting [6]) were 0.1 to 5 µM, below 0.1 µM and below 0.1 µM, respectively.

In the case of `CC(=O)c1ccc(-c2cc(Cl)c3c(c2)CC(CNC(=O)/C=C/c2c(C)nn(C)c2Cl)O3)s1` (stereo not drawn) [Compound 160, (E)-N-((5-(5-acetylthiophen-2-yl)-7-chloro-2,3-dihydrobenzofuran-2-yl)methyl)-3-(5-chloro-1,3-dimethyl-1H-pyrazol-4-yl)acrylamide], the IC50 with 3T3 cells (setting [1]), in the assay with Z138 cells (setting [2]) and in the assay on MS751 cells (setting [3]) was above 30 µM each time.

`CCn1nccc1/C=C/C(=O)NCC1Cc2cc(-c3ccc(C(C)=O)s3)cc(Cl)c2O1` (stereo not drawn) [Compound 274, (E)-N-((5-(5-acetylthiophen-2-yl)-7-chloro-2,3-dihydrobenzofuran-2-yl)methyl)-3-(1-ethyl-1H-pyrazol-5-yl)acrylamide]: the figures for the IC50 in the assay with 3T3 cells (setting [1]), with Z138 cells (setting [2]) and with MS751 cells (setting [3]) were above 30 µM, 5 to 30 µM and 5 to 30 µM, respectively.

For the molecule `CC(=O)c1sc(-c2cc(Cl)c3c(c2)CC(CNC(=O)/C=C/c2ccc(N)nc2)O3)c(C)c1C` (stereo not drawn) [Compound 322], the figures for the IC50 in the assay with 3T3 cells (setting [4]), in the assay on Z138 cells (setting [5]) and with MS751 cells (setting [6]) were 5 to 30 µM, below 0.1 µM and below 0.1 µM, respectively.

`CC(=O)c1ccc(-c2cc(Cl)c3c(c2)CC(CNC(=O)/C=C/c2nccn2-c2ccccc2)O3)s1` (stereo not drawn) [Compound 201, (E)-N-((5-(5-acetylthiophen-2-yl)-7-chloro-2,3-dihydrobenzofuran-2-yl)methyl)-3-(1-phenyl-1H-imidazol-2-yl)acrylamide]: the IC50 in the assay on 3T3 cells (setting [4]), with Z138 cells (setting [5]) and in the assay on MS751 cells (setting [6]) was 5 to 30 µM each time.

With `Cc1cc(-c2cc(Cl)c3c(c2)CC(CNC(=O)/C=C/c2ccc(N)nc2)O3)ccc1C(=O)N1CCOCC1` (stereo not drawn) [Compound 238, (E)-3-(6-aminopyridin-3-yl)-N-((7-chloro-5-(3-methyl-4-(morpholine-4-carbonyl)phenyl)-2,3-dihydrobenzofuran-2-yl)methyl)acrylamide], the IC50 is 0.1 to 5 µM in the assay with 3T3 cells (setting [4]), below 0.1 µM in the assay with Z138 cells (setting [5]) and below 0.1 µM in the assay on MS751 cells (setting [6]).

On to `Nc1ccc(/C=C/C(=O)NCC2Cc3c(-c4ccc(C(=O)N5CCOCC5)cn4)ccc(Cl)c3O2)cn1` (stereo not drawn) [Compound 912, (E)-3-(6-aminopyridin-3-yl)-N-((7-chloro-4-(5-(morpholine-4-carbonyl)pyridin-2-yl)-2,3-dihydrobenzofuran-2-yl)methyl)acrylamide], for which the IC50 with 3T3 cells (setting [4]) is 0.1 to 5 µM; in the assay with Z138 cells (setting [5]), below 0.1 µM; with MS751 cells (setting [6]), 0.1 to 5 µM.
